Reference: patent US10947284B2, “Fusion molecules” (Pieris Pharmaceuticals GMBH, priority 2015, dated 2021)
Starred links: 1 amine or outer side, 2 acyl side, 3 side chain; linkers in the order of their positions; H or OH if unused. Non-standard residues stand in square brackets, D forms with d. Residues, ends and D or L forms follow the SMILES beside them. *: point of attachment. X1 = O=C([C@@H]1CCNc2c(N[*:1])cc3cc(O)c(O)cc3[n+]21)[*:2]; dOrn(N5-OH,N5-CHO) = N[C@H](CCCN(O)C=O)C(=O)O; d(aThr) = C[C@@H](O)[C@@H](N)C(=O)O; Suc = O=C(CCC(=O)[*:2])[*:1]; X2 = O=C1[C@@H](N*)CCCN1[O-]; Orn = NCCC[C@H](N)C(=O)O

Experiments:
[1] = molecular target: T1, hNGAL (human lipocalin 2, parent wild type SEQ ID NO: 1) mutein SEQ ID NO: 47 (Homo sapiens, UniProt P80188, A60L/C107S/D97K/I61A/K154W/K93H/L123Q/L56E/L62R/L90R/N116L/Q48H/Q69M/R101V/S125P/S147V/S88E/W99D/Y120D/Y126E/Y72M); assay: Solution binding ELISA
T1 construct: made in house; host or cells: E. coli
T1 sequence (P80188 other isoform, or with tags, fused parts or gaps with the stated changes): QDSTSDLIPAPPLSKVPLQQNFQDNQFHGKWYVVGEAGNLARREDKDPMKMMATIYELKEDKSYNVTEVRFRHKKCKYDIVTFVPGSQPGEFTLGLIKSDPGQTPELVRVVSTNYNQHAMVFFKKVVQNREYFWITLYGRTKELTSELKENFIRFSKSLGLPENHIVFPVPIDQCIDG
Procedure: (§1) The concentration of free (non ligand-bound) muteins was determined via a quantitative ELISA setup.
(§2) In detail, a 384-well plate suitable for fluorescence measurements (Greiner FLUOTRAC™ 600, black flat bottom, high-binding) was coated with 20 μl of Neutravidin at a concentration of 5 μg/ml in PBS overnight at 4 C. After washing, the Neutravidin-coated wells were blocked with 100 μl blocking buffer containing 0.1% Tween 20 and 2% BSA (PBS-T/BSA) for 1 h at room temperature.
(§3) The residual supernatants were discarded and 20 μl HRP-labeled anti-hNGAL antibody was added at a predetermined optimal concentration in PBS-T/BSA and incubated for 1 h at RT. […] After washing, 20 μl fluorogenic HRP substrate (QuantaBlu, Thermo) was added to each well, and the reaction was allowed to proceed for 15 to 60 minutes. The fluorescence intensity of every well on the plate was read using a fluorescence microplate reader (Tecan or Molecular Devices). […] Curve fitting was performed using GraphPad Prism 4 software.

[2] = molecular target: T2, hNGAL (human lipocalin 2, parent wild type SEQ ID NO: 1) mutein SEQ ID NO: 43 (Homo sapiens, UniProt P80188, A60L/C107S/D97K/I61A/K154W/K93Q/L123Q/L56E/L90R/N116L/Q48H/Q69M/R101V/S147V/S88E/W99D/Y120D/Y126E/Y72M); assay: Solution binding ELISA
T2 construct: made in house; host or cells: E. coli
T2 sequence (P80188 other isoform, or with tags, fused parts or gaps with the stated changes): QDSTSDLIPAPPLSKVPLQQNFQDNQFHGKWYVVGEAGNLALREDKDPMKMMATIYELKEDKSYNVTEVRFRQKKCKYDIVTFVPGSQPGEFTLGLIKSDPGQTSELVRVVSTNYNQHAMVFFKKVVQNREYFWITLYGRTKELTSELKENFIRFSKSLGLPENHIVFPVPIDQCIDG
Procedure: as §1, §2, §3

[3] = molecular target: T3, hNGAL (human lipocalin 2, parent wild type SEQ ID NO: 1) mutein SEQ ID NO: 50 (Homo sapiens, UniProt P80188, A60L/C107S/D97K/I61A/K154W/K93H/L123Q/L56E/L62R/L90R/N116L/N85D/Q48H/Q69M/R101V/S125P/S147V/S88E/W99D/Y120D/Y126E/Y72M); assay: Solution binding ELISA; conditions: Example 5
T3 construct: made in house; host or cells: E. coli
T3 sequence (P80188 other isoform, or with tags, fused parts or gaps with the stated changes): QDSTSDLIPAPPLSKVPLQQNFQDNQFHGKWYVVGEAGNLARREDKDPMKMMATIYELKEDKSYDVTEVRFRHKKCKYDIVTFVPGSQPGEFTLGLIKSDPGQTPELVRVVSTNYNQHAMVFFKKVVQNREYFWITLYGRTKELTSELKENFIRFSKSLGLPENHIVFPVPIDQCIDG
Procedure: as §1, §2, §3

[4] = molecular target: T4, hNGAL (human lipocalin 2, parent wild type SEQ ID NO: 1) mutein SEQ ID NO: 48 (Homo sapiens, UniProt P80188, A60L/C107S/D67N/D97K/I61A/K154W/K93H/L123Q/L56E/L90R/N116L/Q48H/Q69M/R101V/S125P/S147V/S88E/T165P/W99D/Y120D/Y126E/Y72M); assay: Solution binding ELISA
T4 construct: made in house; host or cells: E. coli
T4 sequence (P80188 other isoform, or with tags, fused parts or gaps with the stated changes): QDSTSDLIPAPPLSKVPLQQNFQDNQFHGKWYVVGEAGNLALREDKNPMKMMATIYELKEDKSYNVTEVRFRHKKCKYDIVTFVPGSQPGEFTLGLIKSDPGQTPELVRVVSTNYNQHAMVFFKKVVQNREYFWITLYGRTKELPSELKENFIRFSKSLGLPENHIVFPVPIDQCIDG
Procedure: as §1, §2, §3

[5] = molecular target: T5, hNGAL (human lipocalin 2, parent wild type SEQ ID NO: 1) mutein SEQ ID NO: 46 (deletion of G-N-I-K, positions 95-98) (Homo sapiens, UniProt P80188, A60L/C107S/D97Q/DEL115-118/I61A/K154W/K93Y/L123Q/L56E/L90R/Q48H/Q69K/R101V/S147V/S88E/W99D/Y120E/Y126E/Y152F/Y72M); assay: Solution binding ELISA
T5 construct: made in house; host or cells: E. coli
T5 sequence (P80188 other isoform, or with tags, fused parts or gaps with the stated changes): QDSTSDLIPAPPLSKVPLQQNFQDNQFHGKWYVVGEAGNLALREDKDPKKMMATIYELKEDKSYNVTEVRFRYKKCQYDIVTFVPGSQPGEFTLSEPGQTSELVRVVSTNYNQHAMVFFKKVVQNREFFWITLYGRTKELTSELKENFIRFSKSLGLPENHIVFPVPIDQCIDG
Procedure: as §1, §2, §3

[6] = molecular target: T6, hNGAL (human lipocalin 2, parent wild type SEQ ID NO: 1) mutein SEQ ID NO: 42 (Homo sapiens, UniProt P80188, A60L/C107S/D97Q/I61A/K154W/K93H/L123Q/L56E/L90R/N116L/Q48H/Q69K/R101A/S147V/S88E/W99D/Y120D/Y126E/Y152F/Y72M); assay: Solution binding ELISA
T6 construct: made in house; host or cells: E. coli
T6 sequence (P80188 other isoform, or with tags, fused parts or gaps with the stated changes): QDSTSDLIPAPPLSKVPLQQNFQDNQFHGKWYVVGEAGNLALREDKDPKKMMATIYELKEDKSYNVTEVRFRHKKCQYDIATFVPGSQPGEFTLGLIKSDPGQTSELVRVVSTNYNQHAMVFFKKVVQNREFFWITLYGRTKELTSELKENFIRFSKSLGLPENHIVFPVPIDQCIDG
Procedure: as §1, §2, §3

[7] = molecular target: T7, Fusion molecule SEQ ID NO: 134 (hNGAL muteins SEQ ID NOs: 36, 16, 53 and 62) (Homo sapiens, UniProt P80188, A60T/C107S/D97H, form not given/K145I/K154W/K93R/L123T/L56V/L90R/N85D/Q69G/R101D/R92I/S147R/S88D/T74A/W99Y/Y126Q/Y152I/Y72N); assay: Solution binding ELISA; conditions: binding to target in solution, tracer 0.1 nM, Table 11
T7 construct: made in house
T7 sequence (P80188 with tags, fused parts or gaps with the stated changes, form open): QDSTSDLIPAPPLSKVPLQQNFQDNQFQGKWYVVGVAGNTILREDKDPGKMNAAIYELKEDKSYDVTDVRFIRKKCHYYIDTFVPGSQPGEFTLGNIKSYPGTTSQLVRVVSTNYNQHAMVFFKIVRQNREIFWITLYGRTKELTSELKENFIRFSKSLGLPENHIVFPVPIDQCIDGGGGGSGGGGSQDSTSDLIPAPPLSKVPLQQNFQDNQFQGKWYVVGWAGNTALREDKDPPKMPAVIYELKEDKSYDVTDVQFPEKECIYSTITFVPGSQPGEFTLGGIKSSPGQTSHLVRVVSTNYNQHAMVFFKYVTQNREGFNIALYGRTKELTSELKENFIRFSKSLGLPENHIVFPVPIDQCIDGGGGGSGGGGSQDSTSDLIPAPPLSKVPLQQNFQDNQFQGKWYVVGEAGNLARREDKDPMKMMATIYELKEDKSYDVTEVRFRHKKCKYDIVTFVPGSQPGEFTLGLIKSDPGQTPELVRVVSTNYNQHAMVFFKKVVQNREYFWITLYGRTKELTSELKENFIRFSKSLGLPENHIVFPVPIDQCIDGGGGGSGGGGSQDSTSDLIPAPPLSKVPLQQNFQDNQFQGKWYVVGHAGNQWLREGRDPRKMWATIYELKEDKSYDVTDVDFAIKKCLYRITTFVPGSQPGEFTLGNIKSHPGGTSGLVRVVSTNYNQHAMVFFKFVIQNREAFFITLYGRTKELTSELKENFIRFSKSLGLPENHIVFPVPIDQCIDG

[8] = molecular target: T8, hNGAL (human lipocalin 2, parent wild type SEQ ID NO: 1) mutein SEQ ID NO: 45 (Homo sapiens, UniProt P80188, A60L/C107S/D97K/I61A/K154W/K93H/L123Q/L56E/L90R/N116L/Q48H/Q69M/R101V/S147V/S88E/W99D/Y120D/Y126E/Y72M); assay: Solution binding ELISA
T8 construct: made in house; host or cells: E. coli
T8 sequence (P80188 other isoform, or with tags, fused parts or gaps with the stated changes): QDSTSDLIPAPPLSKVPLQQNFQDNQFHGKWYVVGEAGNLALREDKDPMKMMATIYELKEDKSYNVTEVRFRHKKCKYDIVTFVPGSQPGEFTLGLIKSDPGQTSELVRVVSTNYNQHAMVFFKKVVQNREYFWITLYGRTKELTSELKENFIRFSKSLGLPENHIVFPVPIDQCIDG
Procedure: as §1, §2, §3

[9] = molecular target: T9, hNGAL (human lipocalin 2, parent wild type SEQ ID NO: 1) mutein SEQ ID NO: 53 (Homo sapiens, UniProt P80188, A60L/C107S/D97K/I61A/K154W/K93H/L123Q/L56E/L62R/L90R/N116L/N85D/Q69M/R101V/S125P/S147V/S88E/W99D/Y120D/Y126E/Y72M); assay: Surface plasmon resonance (Biacore T200); assay type: binding; conditions: SPR, 25° C., Table 2C
T9 construct: made in house; host or cells: E. coli
T9 sequence (P80188 21-198 with the stated changes): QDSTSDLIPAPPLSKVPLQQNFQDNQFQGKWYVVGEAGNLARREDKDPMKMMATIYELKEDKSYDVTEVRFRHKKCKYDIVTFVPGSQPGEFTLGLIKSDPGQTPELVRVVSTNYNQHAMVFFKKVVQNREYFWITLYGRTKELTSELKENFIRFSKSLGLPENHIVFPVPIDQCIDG
Procedure: (§4) In a Surface Plasmon Resonance (SPR) based assay a Biacore T200 instrument (GE Healthcare) was used to measure the binding affinity of muteins to pyoverdine I succinyl, -succinamide, -α-ketoglutaryl with complexed iron ion or to pyoverdine II succinyl, -succinamide, -α-ketoglutaryl with complexed iron ion or to pyoverdine III succinyl, -succinamide, -α-ketoglutaryl with complexed iron ion. Muteins selected for binding to pyoverdines and negative control (SEQ ID NO: 64) were biotinylated for 2 h at room temperature applying an appropriate excess of EZ-Link NHS-PEG4-Biotin (Thermo, Cat #21329) followed by separation of non-reacted Biotin using a Zebra Spin Desalting Plate (Thermo, Cat #21329) according to the manufactures instructions.
(§5) In the SPR affinity assay, biotinylated muteins and negative control were captured on a sensor chip CAP using the Biotin CAPture Kit (GE Healthcare): Sensor Chip CAP is pre-immobilized with an ssDNA oligo. Undiluted Biotin CAPture Reagent (streptavidin conjugated with the complementary ss-DNA oligo) was applied at a flow rate of 2 μl/min for 300 s. Subsequently, 1 μg/ml to 100 μg/mL of biotinylated muteins or negative control were applied for 300 s at a flow rate of 5 μl/min. The reference channel was loaded with Biotin CAPture Reagent only.
(§6) Applying a flow rate of 30 μl/min, a single cycle or multi cycle kinetics approach was used with a sample contact time of 120-180 s and a dissociation time of 900-2400 s. […] After ligand immobilization, for analysis using single cycle kinetics all 4-5 concentrations of Pvd were applied consecutively in ascending order before the dissociation was monitored. For analysis using multi cycle kinetics 4 dilutions of Pvd were applied, each followed a dissociation phase. All measurements were performed at 25° C. […] Data were evaluated with Biacore T200 Evaluation software (V 1.0). Double referencing was used. A 1:1 Binding model was used to fit the raw data.
In a surface plasmon resonance (SPR) based assay, a Biacore T200 instrument (GE Healthcare) was used to measure the binding affinity of individual muteins or fusion molecules to pyoverdine siderophores (to pyoverdine I succinyl, -succinamide, -α-ketoglutaryl with complexed iron ion or to pyoverdine II succinyl, -succinamide, -α-ketoglutaryl with complexed iron ion or to pyoverdine III succinyl, -succinamide, -α-ketoglutaryl with complexed iron ion). To this end, muteins selected for binding to pyoverdines (SEQ ID NOs: 16, 36, 53), a fusion molecule (SEQ ID NO: 134) and a negative control (SEQ ID NO: 64) were biotinylated for 2 h at room temperature applying an appropriate excess of EZ-Link NHS-PEG4-Biotin (Thermo, Cat #21329) followed by separation of non-reacted biotin using a Zebra Spin Desalting Plate (Thermo, Cat #21329) according to the manufacturer's instructions.
In the SPR affinity assay, biotinylated muteins and negative control were captured on a sensor chip CAP using the Biotin CAPture Kit (GE Healthcare), wherein the Sensor Chip CAP is pre-immobilized with an ssDNA oligo. Undiluted Biotin CAPture Reagent (streptavidin conjugated with the complementary ss-DNA oligo) was applied at a flow rate of 2 μl/min for 300 s. Subsequently, 20 μg/ml to 100 μg/mL of biotinylated muteins or fusion molecule negative control were applied for 300 s at a flow rate of 5 μl/min. The reference channel was loaded with Biotin CAPture Reagent only. To determine the binding affinity, four dilutions of the respective Pvd were prepared in HBS-EP+ buffer (GE Healthcare) and applied to the chip surface. Applying a flow rate of 30 μl/min, a single cycle kinetics approach was used with a sample contact time of 180 s and a dissociation time of 1800-2400 s. […] After ligand immobilization, the four concentrations of Pvd were applied consecutively in ascending order before the dissociation was monitored. All measurements were performed at 25° C. […] Data were evaluated with Biacore T200 Evaluation software (V 1.0). Double referencing was preformed.

[10] = molecular target: T10, hNGAL (human lipocalin 2, parent wild type SEQ ID NO: 1) mutein SEQ ID NO: 39 (Homo sapiens, UniProt P80188, A60R/C107S/D97A/I61W/K145T/K154E/K93L/L123P/L56F/L90N/N116R/Q48H/Q69I/R101S/R92W/S147I/S88Q/W99S/Y120I/Y126E/Y152F); conditions: solution binding ELISA
T10 construct: made in house; host or cells: E. coli
T10 sequence (P80188 other isoform, or with tags, fused parts or gaps with the stated changes): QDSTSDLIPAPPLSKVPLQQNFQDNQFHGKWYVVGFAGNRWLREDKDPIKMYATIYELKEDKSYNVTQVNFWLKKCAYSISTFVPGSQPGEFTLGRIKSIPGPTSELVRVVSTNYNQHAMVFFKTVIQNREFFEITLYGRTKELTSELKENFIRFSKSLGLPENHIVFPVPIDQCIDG
Procedure: as §1, §2, §3

[11] = molecular target: T11, Fusion molecule SEQ ID NO: 134 (hNGAL muteins SEQ ID NOs: 36, 16, 53 and 62) (Homo sapiens, UniProt P80188, A60T/C107S/D97H, form not given/K145I/K154W/K93R/L123T/L56V/L90R/N85D/Q69G/R101D/R92I/S147R/S88D/T74A/W99Y/Y126Q/Y152I/Y72N); assay: Surface plasmon resonance (Biacore T200); assay type: binding; conditions: for binding: SPR
T11 construct: made in house; host or cells: HEK293
T11 sequence (P80188 with tags, fused parts or gaps with the stated changes, form open): as the sequence (P80188 with tags, fused parts or gaps with the stated changes, form open) above

[12] = molecular target: T9, hNGAL (human lipocalin 2, parent wild type SEQ ID NO: 1) mutein SEQ ID NO: 53; assay: Solution binding ELISA; conditions: Example 5
Procedure: as §1, §2, §3
The concentration of free (non ligand-bound) mutein or fusion molecule construct was determined via a quantitative ELISA setup.
In detail, a 384-well plate suitable for fluorescence measurements (Greiner FLUOTRAC™ 600, black flat bottom, high-binding) was coated with 20 μl of Neutravidin at a concentration of 5 μg/ml in PBS overnight at 4° C. After washing, the Neutravidin-coated wells were blocked with 100 μl blocking buffer containing 0.1% Tween 20 and 2% BSA (PBS-T/BSA) for 1 h at room temperature.
The residual supernatants were discarded and 20 μl HRP-labeled anti-hNGAL antibody was added at a predetermined optimal concentration in PBS-T/BSA and incubated for 1 h at RT. […] After washing, 20 μl fluorogenic HRP substrate (QuantaBlu, Thermo) was added to each well, and the reaction was allowed to proceed for 15 to 60 minutes. The fluorescence intensity of every well on the plate was read using a fluorescence microplate reader (Tecan or Molecular Devices). […] IC50 values were fitted by nonlinear regression with a single-sites binding model. Curve fitting was performed using GraphPad Prism 4 software.

[13] = molecular target: T12, hNGAL (human lipocalin 2, parent wild type SEQ ID NO: 1) mutein SEQ ID NO: 44 (Homo sapiens, UniProt P80188, A60L/C107S/D97K/I61T/K154W/K93R/L123Q/L56E/L90R/N116V/Q48H/Q69M/R101V/S147V/S88E/W99D/Y120D/Y126E/Y72M); assay: Solution binding ELISA
T12 construct: made in house; host or cells: E. coli
T12 sequence (P80188 other isoform, or with tags, fused parts or gaps with the stated changes): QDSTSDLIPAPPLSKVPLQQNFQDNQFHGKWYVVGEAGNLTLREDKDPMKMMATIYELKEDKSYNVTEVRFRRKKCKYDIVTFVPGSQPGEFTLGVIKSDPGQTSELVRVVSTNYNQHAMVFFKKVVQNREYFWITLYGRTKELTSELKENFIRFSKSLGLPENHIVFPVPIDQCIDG
Procedure: as §1, §2, §3

[14] = molecular target: lipocalin negative control SEQ ID NO: 64 (Homo sapiens, UniProt P80188, C107S/Q48H); assay: Surface plasmon resonance (Biacore T200); assay type: binding
Sequence of lipocalin negative control SEQ ID NO: 64 (P80188 21-198 Q48H/C107S): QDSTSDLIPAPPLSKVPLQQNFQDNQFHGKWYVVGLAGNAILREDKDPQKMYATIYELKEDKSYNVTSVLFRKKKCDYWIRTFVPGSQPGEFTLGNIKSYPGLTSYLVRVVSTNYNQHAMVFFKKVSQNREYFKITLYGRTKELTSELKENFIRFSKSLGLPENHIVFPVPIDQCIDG
Procedure: as §4, §5, §6
(§7) Subsequently, 5 μg/mL of mutein or the negative control solution in 10 mM acetate pH 4.0 was applied at a flow rate of 10 μl/min until a high immobilization level of approximately 2000 RU was achieved. Residual activated groups were quenched with ethanolamine. The reference channels were treated with EDC/NHS following ethanolamine (blank immobilization).
In the SPR affinity assay, biotinylated muteins and negative control were captured on a sensor chip CAP using the Biotin CAPture Kit (GE Healthcare), wherein the Sensor Chip CAP is pre-immobilized with an ssDNA oligo. Undiluted Biotin CAPture Reagent (streptavidin conjugated with the complementary ss-DNA oligo) was applied at a flow rate of 2 μl/min for 300 s. Subsequently, 20 μg/ml to 100 μg/mL of biotinylated muteins or fusion molecule negative control were applied for 300 s at a flow rate of 5 μl/min. The reference channel was loaded with Biotin CAPture Reagent only. To determine the binding affinity, four dilutions of the respective Pvd were prepared in HBS-EP+ buffer (GE Healthcare) and applied to the chip surface. Applying a flow rate of 30 μl/min, a single cycle kinetics approach was used with a sample contact time of 180 s and a dissociation time of 1800-2400 s. […] After ligand immobilization, the four concentrations of Pvd were applied consecutively in ascending order before the dissociation was monitored. All measurements were performed at 25° C. […] Data were evaluated with Biacore T200 Evaluation software (V 1.0). Double referencing was preformed. A 1:1 binding model was used to fit the raw data.

[15] = molecular target: T13, hNGAL (human lipocalin 2, parent wild type SEQ ID NO: 1) mutein SEQ ID NO: 62 (Homo sapiens, UniProt P80188, A60Q/C107S/D65G/D97L/I61W/K145F/K154F/K66R/K93I/L123G/L56H/L90D/N85D/Q69R/R101T/R92A/S147I/S88D/W99R/Y120H/Y126G/Y152A/Y72W); assay: Surface plasmon resonance (Biacore T200), CM5 chip; assay type: binding; conditions: SPR, high concentrations (≥1 μM)
T13 construct: made in house
T13 sequence (P80188 21-198 with the stated changes): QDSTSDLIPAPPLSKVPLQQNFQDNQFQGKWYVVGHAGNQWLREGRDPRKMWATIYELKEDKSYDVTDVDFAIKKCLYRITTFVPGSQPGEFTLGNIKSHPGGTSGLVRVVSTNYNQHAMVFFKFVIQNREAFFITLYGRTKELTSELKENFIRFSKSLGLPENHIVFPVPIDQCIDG
Procedure: as §7
The binding assay was carried out with a contact time of 180 s, dissociation times of 1200-1800 s and applying a flow rate of 30 μl/min. Measurements were performed at 25° C. Regeneration of the immobilized mutein surface was achieved by three consecutive injections of 10 mM Gly-HCl pH 1.5 (120 s) followed by an extra wash with running buffer and a stabilization period. Data were evaluated with Biacore T200 Evaluation software (V 1.0). Double referencing was used. The 1:1 Binding model was used to fit the raw data.
Subsequently, 5 μg/mL of mutein or the negative control solution in 10 mM acetate pH 4.0 was applied at a flow rate of 10 μl/min until a high immobilization level of approximately 2000 RU was achieved. Residual activated groups were quenched with ethanolamine. The reference channels were treated with EDC/NHS following ethanolamine (blank immobilization). […] The binding assay was carried out with a contact time of 180 s, dissociation times of 1500-1800 s and applying a flow rate of 30 μl/min. Measurements were performed at 25° C. Regeneration of the immobilized mutein surface was achieved by three consecutive injections of 10 mM Gly-HCl pH 1.5 (120 s) followed by an extra wash with running buffer and a stabilization period. Data were evaluated with Biacore T200 Evaluation software (V 1.0). Double referencing was used. The 1:1 Binding model was used to fit the raw data.

[16] = molecular target: hNGAL (human lipocalin 2), wild type, SEQ ID NO: 1 (Homo sapiens, UniProt P80188); conditions: cited from earlier work
Sequence of hNGAL (human lipocalin 2), wild type, SEQ ID NO: 1 (P80188 21-198): as the sequence (P80188 21-198 Q48H/C107S) above, with H28Q, S87C counted along it

SMILES | IC50 [1] [pM] | IC50 [2] [pM] | IC50 [3] [pM] | IC50 [4] [pM] | IC50 [5] [pM] | IC50 [6] [pM] | IC50 [7] [pM] | IC50 [8] [pM] | IC50 [10] [pM] | Kd ([11]; Biacore, 25° C., Table 13) [pM] | IC50 [12] [pM] | IC50 [13] [pM] | other results
NC(=O)CC[C@H](NC(=O)[C@H](CCCN([O-])C=O)NC(=O)[C@@H]1CCN=C([C@@H](CO)NC(=O)[C@@H]2CCNc3c(NC(=O)C(=O)CCC(=O)O)cc4cc([O-])c([O-])cc4[n+]32)N1)C(=O)N[C@H](CCC(N)=O)C(=O)N[C@H](CCCN([O-])C=O)C(=O)NCC(=O)O.[Fe+3] [Pvd III aKG (+Fe), Pvd type III α-ketoglutaryl] | 820 | 1400 | 950 | 950 | 1020 | 78000 | 580 | 1500 | 23000 | 1040 | 540 | 930 | Kd [9]: 3600 pM; koff [9]: 0.00014 s⁻¹; kon [9]: 38800 M⁻¹ s⁻¹
NC(=O)CCC(=O)Nc1cc2cc([O-])c([O-])cc2[n+]2c1NCC[C@H]2C(=O)N[C@H](CO)C1=NCC[C@@H](C(=O)N[C@@H](CCCN([O-])C=O)C(=O)N[C@@H](CCC(N)=O)C(=O)N[C@H](CCC(N)=O)C(=O)N[C@H](CCCN([O-])C=O)C(=O)NCC(=O)O)N1.[Fe+3] [Pvd III sa (+Fe), Pvd type III succinamide] | 300 | 250 | 350 | 220 | 300 | 15000 | 310 | 430 | 147000 | 270 | 250 | 260 | Kd [9]: 580 pM; koff [9]: 3.9e-05 s⁻¹; kon [9]: 67300 M⁻¹ s⁻¹
NC(=O)CCC(=O)Nc1cc2cc(O)c(O)cc2[n+]2c1NCC[C@H]2C(=O)N[C@H](CO)C1=NCC[C@@H](C(=O)N[C@@H](CCCN(O)C=O)C(=O)N[C@@H](CCC(N)=O)C(=O)N[C@H](CCC(N)=O)C(=O)N[C@H](CCCN(O)C=O)C(=O)NCC(=O)O)N1 [Pvd III sa (−Fe), Pvd type III succinamide] | 280 | 460 | 370 | 240 | 300 | 7200 | 270 | 460 | 94000 | 1650 | 630 | 210 | 
C[C@@H](O)[C@@H](NC(=O)CNC(=O)[C@H](CCCN)NC(=O)[C@@H](CCCN([O-])C=O)NC(=O)[C@@H](CO)NC(=O)[C@@H]1CCNc2c(NC(=O)CCC(=O)O)cc3cc([O-])c([O-])cc3[n+]21)C(=O)N[C@@H](CO)C(=O)N[C@H]1CCCN([O-])C1=O.[Fe+3] [Pvd II s (+Fe), Pvd type II succinyl] (Suc-[X1][dS][dOrn(N5-OH,N5-CHO)][Orn]G[d(aThr)]S-X2) |  |  |  |  |  |  |  |  |  |  |  |  | binding ([14]; SPR, analyte at 1200 nM): absence of binding
CC(=O)N(O)CCCCCNC(=O)CCC(=O)N(O)CCCCCNC(=O)CCC(=O)N(O)CCCCCN [Desferoxamin, desferoxamine] |  |  |  |  |  |  |  |  |  |  |  |  | KD ([11]; Biacore, 25° C., Table 13): no bdg; binding ([11]; high concentrations (≥1 μM)): absence of binding; binding [15]: absence of binding
O=C(N[C@H]1COC(=O)[C@@H](NC(=O)c2cccc(O)c2O)COC(=O)[C@@H](NC(=O)c2cccc(O)c2O)COC1=O)c1cccc(O)c1O.[Fe+3] [enterobactin] |  |  |  |  |  |  |  |  |  |  |  |  | binding [16]: high affinity
NC(=O)CC[C@H](NC(=O)[C@H](CCCN(O)C=O)NC(=O)[C@@H]1CCN=C([C@@H](CO)NC(=O)[C@@H]2CCNc3c(NC(=O)C(=O)CCC(=O)O)cc4cc(O)c(O)cc4[n+]32)N1)C(=O)N[C@H](CCC(N)=O)C(=O)N[C@H](CCCN(O)C=O)C(=O)NCC(=O)O [Pvd III aKG (−Fe), Pvd type III α-ketoglutaryl] | 580 | 1900 | 820 | 640 | 1200 | 69000 | 700 | 1700 | 23000 | 18700 | 330 | 1100 | 
CN1[C@@H]([C@H]2CSC(c3ccccc3O)=N2)SC[C@H]1C(=O)O [pyochelin] |  |  |  |  |  |  |  |  |  |  |  |  | binding [16]: does not bind; binding ([11]; His-tagged fusion captured via Ni-NTA): clearly detectable; binding ([14]; Biacore, Example 18): did not show binding
NC(=O)CC[C@H](NC(=O)[C@H](CCCN([O-])C=O)NC(=O)[C@@H]1CCN=C([C@@H](CO)NC(=O)[C@@H]2CCNc3c(NC(=O)CCC(=O)O)cc4cc([O-])c([O-])cc4[n+]32)N1)C(=O)N[C@H](CCC(N)=O)C(=O)N[C@H](CCCN([O-])C=O)C(=O)NCC(=O)O.[Fe+3] [Pvd III s (+Fe), Pvd type III succinyl] |  |  |  |  |  |  |  |  |  |  |  |  | binding ([14]; SPR, analyte at 1200 nM): absence of binding
